Reference: PubChem BioAssay AID248 (DTP/NCI, 2004)
Where “and” joins values, the source holds several entries; their conditions need not be identical. Equal values may be shown once. Inconclusive results and toxic doses are left out. No stated cut-off is given here; in the data, active means T/C of 150% or more; inactive means T/C below 125%.

Test system: L1210 leukemia ip in BDF1 mice, survival T/C
Test: NCI In Vivo Anticancer Drug Screen. Data for tumor model L1210 Leukemia (intraperitoneal) in B6D2F1 (BDF1) mice
Conditions: endpoint: mean survival time, higher = longer survival
How it was run: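 Transplanted-tumor mice were given test agent; controls received vehicle only. Survival readings from the two groups were divided (treated over control).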

[1] = dose: 50.0 mg/kg/injection, schedule: Q01DX009 (ip), vehicle: saline with Tween-80
[2] = dose: 100.0 mg/kg/injection, schedule: Q01DX009 (ip), vehicle: saline with Tween-80
[3] = dose: 200.0 mg/kg/injection, schedule: Q01DX009 (ip), vehicle: saline with Tween-80
[4] = dose: 100.0 mg/kg/injection, schedule: Q01DX001 (ip), vehicle: saline
[5] = dose: 100.0 mg/kg/injection, schedule: Q01DX009 (ip), vehicle: Klucel (hydroxypropylcellulose) (HPC)
[6] = dose: 200.0 mg/kg/injection, schedule: Q01DX009 (ip), vehicle: Klucel (hydroxypropylcellulose) (HPC)
[7] = dose: 400.0 mg/kg/injection, schedule: Q01DX009 (ip), vehicle: Klucel (hydroxypropylcellulose) (HPC)
[8] = dose: 100.0 mg/kg/injection, schedule: Q04DX002 (ip), vehicle: saline with Tween-80
[9] = dose: 200.0 mg/kg/injection, schedule: Q04DX002 (ip), vehicle: saline with Tween-80
[10] = dose: 400.0 mg/kg/injection, schedule: Q04DX002 (ip), vehicle: saline with Tween-80
[11] = dose: 100.0 mg/kg/injection, schedule: Q01DX009 (ip), vehicle: saline
[12] = dose: 100.0 mg/kg/injection, schedule: Q04DX003 (ip), vehicle: saline
[13] = dose: 200.0 mg/kg/injection, schedule: Q04DX003 (ip), vehicle: saline

Measured: T/C

CC1=CCC2C(=O)C=CC(=O)C2C1 (stereo unspecified)
inactive: dose: 5.0 mg/kg/injection, schedule: Q01DX009 (ip), vehicle: Klucel (hydroxypropylcellulose) (HPC) 98 % of control | dose: 10.0 mg/kg/injection, schedule: Q01DX001 (ip), vehicle: carboxymethylcellulose (CMC) 107 % of control | dose: 10.0 mg/kg/injection, schedule: Q01DX009 (ip), vehicle: Klucel (hydroxypropylcellulose) (HPC) 89 % of control | dose: 20.0 mg/kg/injection, schedule: Q01DX001 (ip), vehicle: carboxymethylcellulose (CMC) 109 % of control | dose: 20.0 mg/kg/injection, schedule: Q01DX009 (ip), vehicle: Klucel (hydroxypropylcellulose) (HPC) 96 % of control | dose: 40.0 mg/kg/injection, schedule: Q01DX001 (ip), vehicle: carboxymethylcellulose (CMC) 107 % of control | dose: 80.0 mg/kg/injection, schedule: Q01DX001 (ip), vehicle: carboxymethylcellulose (CMC) 109 % of control

COc1cc2ccc3c4ccccc4c[n+](C)c3c2cc1OC
inactive: dose: 18.75 mg/kg/injection, schedule: Q01DX001 (ip), vehicle: saline with Tween-80 106 % of control | dose: 37.5 mg/kg/injection, schedule: Q01DX001 (ip), vehicle: saline with Tween-80 106 % of control | dose: 75.0 mg/kg/injection, schedule: Q01DX001 (ip), vehicle: saline with Tween-80 113 % of control

Cn1c(=O)c2c(ncn2CCSCC2=NS(=O)(=O)c3cc(S(N)(=O)=O)c(C(F)(F)F)cc3N2)n(C)c1=O
inactive: dose: 100.0 mg/kg/injection, schedule: Q04DX002 (ip), vehicle: saline 97 % of control | dose: 200.0 mg/kg/injection, schedule: Q04DX002 (ip), vehicle: saline 94 % of control | dose: 400.0 mg/kg/injection, schedule: Q04DX002 (ip), vehicle: saline 94 % of control

Cc1c(C)c(C)c(C(=O)O)c(C)c1C
inactive: [1] 93 % of control | [2] 90 % of control | [3] 93 % of control

CCCCCN(CCCCC)CC(O)C1c2ccccc2Cc2ccccc21 (stereo unspecified)
inactive: dose: 5.0 mg/kg/injection, schedule: Q01DX001 (ip), vehicle: saline 102 % of control | dose: 10.0 mg/kg/injection, schedule: Q01DX001 (ip), vehicle: saline 98 % of control | dose: 20.0 mg/kg/injection, schedule: Q01DX001 (ip), vehicle: saline 102 % of control | dose: 40.0 mg/kg/injection, schedule: Q01DX001 (ip), vehicle: saline 104 % of control | [4] 101 % of control

O=C(CCNC(=O)OCc1ccccc1)NC(Cc1ccccc1)C(=O)OCc1ccccc1 (stereo unspecified)
inactive: dose: 100.0 mg/kg/injection, schedule: Q04DX003 (ip), vehicle: saline with Tween-80 103 % of control | dose: 200.0 mg/kg/injection, schedule: Q04DX003 (ip), vehicle: saline with Tween-80 97 % of control | dose: 400.0 mg/kg/injection, schedule: Q04DX003 (ip), vehicle: saline with Tween-80 95 % of control

Cc1cccc(NC(=S)Nc2ccccc2)c1C
inactive: dose: 100.0 mg/kg/injection, schedule: Q04DX002 (ip), vehicle: Klucel (hydroxypropylcellulose) (HPC) 94 % of control | dose: 200.0 mg/kg/injection, schedule: Q04DX002 (ip), vehicle: Klucel (hydroxypropylcellulose) (HPC) 105 % of control | dose: 400.0 mg/kg/injection, schedule: Q04DX002 (ip), vehicle: Klucel (hydroxypropylcellulose) (HPC) 101 % of control

CCCCCCN(CCCCCC)C(C)=O
inactive: dose: 50.0 mg/kg/injection, schedule: Q04DX003 (ip), vehicle: other 103 % of control | dose: 100.0 mg/kg/injection, schedule: Q01DX001 (ip), vehicle: other 96 % of control | dose: 100.0 mg/kg/injection, schedule: Q04DX003 (ip), vehicle: other 98 % of control | dose: 200.0 mg/kg/injection, schedule: Q01DX001 (ip), vehicle: other 96 % of control | dose: 200.0 mg/kg/injection, schedule: Q04DX003 (ip), vehicle: other 93 % of control

CC(C)N1CSC(=S)N(Cc2ccccc2)C1
inactive: dose: 50.0 mg/kg/injection, schedule: Q01DX009 (ip), vehicle: Klucel (hydroxypropylcellulose) (HPC) 108 % of control | [5] 92 % of control | dose: 100.0 mg/kg/injection, schedule: Q04DX003 (ip), vehicle: Klucel (hydroxypropylcellulose) (HPC) 98 % of control | [6] 91 % of control | dose: 200.0 mg/kg/injection, schedule: Q04DX003 (ip), vehicle: Klucel (hydroxypropylcellulose) (HPC) 95 % of control | [7] 94 % of control | dose: 400.0 mg/kg/injection, schedule: Q04DX003 (ip), vehicle: Klucel (hydroxypropylcellulose) (HPC) 90 % of control

ClC1=CC2CCC1C21CC1 (stereo unspecified)
inactive: [1] 105 % of control | dose: 100.0 mg/kg/injection, schedule: Q01DX005 (ip), vehicle: saline with Tween-80 92 % of control | [2] 94 % of control | [8] 87 % of control | dose: 200.0 mg/kg/injection, schedule: Q01DX005 (ip), vehicle: saline with Tween-80 96 % of control | [3] 97 % of control | [9] 100 % of control | [10] 103 % of control

CCCN(CCC)C(=S)[S-].CCCN(CCC)C(=S)[S-].[Zn]
inactive: dose: 100.0 mg/kg/injection, schedule: Q04DX003 (ip), vehicle: saline sonified 100 % of control | dose: 200.0 mg/kg/injection, schedule: Q04DX003 (ip), vehicle: saline sonified 91 % of control | dose: 400.0 mg/kg/injection, schedule: Q04DX003 (ip), vehicle: saline sonified 86 % of control

CCN(CC)CC(=O)NCC(CC)(CCN(C)C)c1cccc2ccccc12 (stereo unspecified)
inactive: [11] 105 % of control | [12] 102 % of control | dose: 200.0 mg/kg/injection, schedule: Q01DX009 (ip), vehicle: saline 97 % of control | [13] 100 % of control

CCCC(C)c1c(N)nc(N)[nH]c1=O (stereo unspecified)
inactive: dose: 80.0 mg/kg/injection, schedule: Q01DX001 (ip), vehicle: Klucel (hydroxypropylcellulose) (HPC) 103 % of control | dose: 160.0 mg/kg/injection, schedule: Q01DX001 (ip), vehicle: Klucel (hydroxypropylcellulose) (HPC) 92 % of control | dose: 320.0 mg/kg/injection, schedule: Q01DX001 (ip), vehicle: Klucel (hydroxypropylcellulose) (HPC) 94 % of control

CC(=O)Nc1cccc(OC(=O)Nc2cccc(Cl)c2Cl)c1
inactive: [5] 97 % of control | [6] 102 % of control | [7] 103 % of control

CC(C)C(C#Cc1ccccc1)N1CCCCC1 (stereo unspecified)
inactive: [8] 103 % of control | [9] 87 % of control | [10] 97 % of control

CC(=O)OCC1OC(N2CCc3ccccc32)C(OC(C)=O)C(OC(C)=O)C1OC(C)=O (stereo unspecified)
inactive: [4] 103 % of control | dose: 200.0 mg/kg/injection, schedule: Q01DX001 (ip), vehicle: saline 102 % of control | dose: 400.0 mg/kg/injection, schedule: Q01DX001 (ip), vehicle: saline 96 % of control

COC1OC(CCl)C(Cl)CC1OC(C)=O (stereo unspecified)
inactive: [12] 95 % of control | [13] 90 % of control | dose: 400.0 mg/kg/injection, schedule: Q04DX003 (ip), vehicle: saline 98 % of control

CC(Cc1ccccc1)n1c(-c2ccccc2)c[n+]2ccccc12 (stereo unspecified)
inactive: dose: 1.17 mg/kg/injection, schedule: Q01DX001 (ip), vehicle: other 101 % of control | dose: 2.34 mg/kg/injection, schedule: Q01DX001 (ip), vehicle: other 102 % of control | dose: 4.69 mg/kg/injection, schedule: Q01DX001 (ip), vehicle: other 102 % of control

CC(=O)OCc1c[n+]([O-])c(C)c(OC(C)=O)c1COC(C)=O
inactive: dose: 25.0 mg/kg/injection, schedule: Q04DX003 (ip), vehicle: saline 101 % of control | dose: 50.0 mg/kg/injection, schedule: Q04DX003 (ip), vehicle: saline 101 % of control

C(COCC1CO1)OCC1CO1 (stereo unspecified)
inactive: dose: 6.25 mg/kg/injection, schedule: Q01DX009 (ip), vehicle: saline 115 % of control | dose: 12.5 mg/kg/injection, schedule: Q01DX009 (ip), vehicle: saline 110 % of control | dose: 25.0 mg/kg/injection, schedule: Q01DX009 (ip), vehicle: saline 110 % of control and 118 % of control | [11] 120 % of control | [12] 122 % of control | dose: 200.0 mg/kg/injection, schedule: Q01DX Z (ip), vehicle: saline 121 % of control | [13] 91 % of control | dose: 300.0 mg/kg/injection, schedule: Q01DX Z (ip), vehicle: saline 114 % of control | dose: 450.0 mg/kg/injection, schedule: Q01DX Z (ip), vehicle: saline 122 % of control

CCOc1c(Cl)c(Cl)c(Cl)c(Cl)c1Cl
inactive: [5] 91 % of control | [6] 97 % of control | [7] 91 % of control
